Legend:
[1] = system: infected red cells; test: Extraction of chelatable iron, infected red cells (IRC); format: cell-based, human erythrocytes infected with P. falciparum; details: 12 μM
Procedure: (§1) l. Extraction of chelatable iron. Trophozoite stage parasites were obtained from step gradient of Percoll-3% L-alanine in phosphate buffered saline (10 mM Na-phosphate, 150 mM NaCl, pH 7.4). Cell suspensions of 100% parasitemia were adjusted to 1% hematocrit and placed in RPMI growth medium supplemented with 50 mM sucrose and 20 mM glucose. Pretreatment of cells was done with 12 μM of the indicated SF derivative or DMSO for 2 hours at 37° C. at which time the cells were washed twice in 500× volume of buffer containing 150 mM NaCl, 10 mM HEPES and 50 mM sucrose pH=7.4 Next the cells were incubated for additional 3 hours in 6.8 μM NBD-DFO and washed to remove fluorescent probe. Measurements of chelatable iron were carried out in the TCA soluble fraction of freeze thaw lysates as described by Lytton, S. D. et al., 1991 Mol. Pharmacol. 40:584-590.
(§2) Iron extractions were performed on cell suspensions treated (yes) or untreated (no) with 12 μM RSF n2-ileu for 2 hours at 37° C. Fluorescence assays of chelatable iron in non-infected (NRC) and in parasitized (IRC) red cells were carried out as described by Lytton et al., (1991) Mol. Pharmacol. 40:584.

[2] = system: transferrin; test: Effect on iron in transferrin; details: after the same time of exposure
[3] = system: normal red cells; test: Extraction of chelatable iron, normal red cells (NRC); format: cell-based, human; details: Experiment 1, NRC, 12 μM, 2 hours at 37° C (untreated <0.1)
Procedure: as §1, §2

[4] = amino acid side chain, Tanford/Segret's scale as given by Eisenberg 1984; cited from earlier work
[5] = Extraction of iron from aqueous FeCl3/citrate into chloroform; format: physicochemical; details: 0.3 mM in chloroform vs 0.3 mM FeCl3, 0.3 mM citric acid, 40 mM TRIS, pH 6.9, overnight
Procedure: d. Extractions were performed by overnight equilibration of 0.3 mM chloroform solutions of reversed siderophore with aqueous solutions of 0.3 mM FeCl3, 0.3 mM citric acid, 40 mM TRIS, pH 6.9. The amount of iron taken up into the organic phase was determined by the absorption of the iron+complex at 430 nm. No iron uptake into chloroform solutions devoid of RSF was observed by ion chromatography.

CC[C@H](C)[C@H](NC(=O)CCOCC(CC)(COCCC(=O)N[C@H](C(=O)N(C)O)[C@@H](C)CC)COCCC(=O)N[C@H](C(=O)N(C)O)[C@@H](C)CC)C(=O)N(C)O [SF1-ileu]
Chelatable iron after RSF pretreatment ([1]; Experiment 1, IRC, 2 hours at 37° C (untreated 4.6)): 0.9 nmoles/10^10 cells
Chelatable iron after RSF pretreatment ([1]; Experiment 2, IRC, 2 hours at 37° C (untreated 2.9)): 0.3 nmoles/10^10 cells
Reduction of chelatable iron ([1]; pretreatment of trophozoites, 2 hours): 5-10 fold
Effect on iron in transferrin [2]: not substantially affecting
Chelatable iron after RSF pretreatment [3]: 0.7 nmoles/10^10 cells
Hydrophobicity [4]: 5.0
Extraction efficiency [5]: 52

— patent US5430058A, “Pharmaceutical compositions comprising hydroxamate derivatives for iron removal” (Yeda Research and Development Co. Ltd., priority 1993, dated 1995)
